# Experimental data taken from patent US6979471B1, “Composition comprising pharmaceutical/nutraceutical agent and a bio-enhancer obtained from Glycyrrhiza glabra” (Council of Scientific and Industrial Research, priority 2000, dated 2005).
# Assays:
# Type in all cases: cell-based
# [1] = tested on: MCF-7 (Breast cancer cell line); experiment: Assay for bio-enhancement of anti-cancer agents: viable cell count after 36 hours; settings: glycyrrhizin alone, without taxol; untreated control […] 10^−6
# Protocol: (§1) For this, the cells are treated with the bioenhancer/compound for 4 to 8 hours and then washed free of it by centrifugation and washing in sterile water. […] 2. Assay for Bio-Enhancement of Anti-Cancer Agents • a) MCF-7 (Breast cancer cell line is inoculated at a density of about 0.1×10^6 cells in MEM medium in the wells of 24 well plate. • b) The used up medium in these cultures is replaced with fresh medium after 18 hours in each well. • c) The test compound (s) is added at desired concentrations in different wells just after the medium replacement. • d) Observations are recorded on the cell count after 36 hours for which the following steps are required. • i. The medium is removed from the wells. • ii. The wells are rinsed with 1 ml PBS (Phosphate buffer saline). • iii. To each well 500 μl of freshly prepared trypsin solution (0.1% in PBS) is added. • iv. Trypsin solution is removed after 30 seconds and the plate is gently tapped till the cells are released from the plate surface. • v. Fresh 1 ml of MEM growth medium is added and agitated with a pipette to obtain a cell suspension. • vi. 10 μl of cell suspension is taken on the haemocytometer and a cover glass is placed over the counting chamber. • vii. The number of viable cells is counted in 5 big squares and the reading is taken from 5 microscopic fields to determine the average. • viii. The cell count (titre per ml) in the original sample is then calculated as average count×10^3. Composition of Minimum Essential Medium (MEM): 100 ml
# [2] = tested on: Escherichia coli, Bacillus subtilis and Mycobacterium smegmatis; experiment: Bacteria grown with glycyrrhizin alone; pretreatment assay
# Protocol: For this, the cells are treated with the bioenhancer/compound for 4 to 8 hours and then washed free of it by centrifugation and washing in sterile water. […] The medium is removed from the wells. • ii. The wells are rinsed with 1 ml PBS (Phosphate buffer saline). • iii. To each well 500 μl of freshly prepared trypsin solution (0.1% in PBS) is added. • iv. Trypsin solution is removed after 30 seconds and the plate is gently tapped till the cells are released from the plate surface. • v. Fresh 1 ml of MEM growth medium is added and agitated with a pipette to obtain a cell suspension. • vi. 10 μl of cell suspension is taken on the haemocytometer and a cover glass is placed over the counting chamber. • vii. […] The cell count (titre per ml) in the original sample is then calculated as average count×10^3. Composition of Minimum Essential Medium (MEM): 100 ml In the next step of elucidation of the enhancer action the applicants experimented with the killing activities of different antibiotics against the bacteria singly and in combination with the test compound glycyrrhizin following the method described above. These experiments are to be considered with assay for bioenhancement of the compounds glycyrrhizin/glycyrrhizic acid and licorice, as described earlier. […]
# [3] = tested on: Candida albicans (ATCC 10231); experiment: Disc diffusion assay, antifungal agent against Candida albicans; settings: Candida albicans, ATCC10231; glycyrrhizin 1 μg/disc alone, clotrimazole 0
# Protocol: (§2) • a) The minimum inhibitory concentration (MIC) of any antibiotic or drug molecule is determined against Escherichia coli (ATCC 10536), Bacillus subtilis (ATCC 6015) and Mycobacterium smegmatis (ATCC 14468) and Candida albicans (ATCC 10231) in broth and disc diffusion assays. • b) The antibiotics or antifungal agents at concentrations 1/10, ⅛, ⅙, ¼, ⅓, ½ and equal to MIC are added alone and in combination with the test compound at varying concentrations in broth assays to evaluate the comparative level of inhibition and similarly at varying concentrations in disc diffusion assay. • c) The combinations showing enhancement in terms of higher activity than antibiotic alone for the inhibition of bacterial growth (large inhibition zone in disc diffusion and higher killing at lower concentration in broth assay) are picked up for future testing. • d) In broth assays the activity is quantified by counting number of viable cells in a given treatment and converted in fold enhancement by the combination treatment compared to antibiotic/drug alone in the killing percentage of cells. • e) The pretreatment assay is followed to determine whether the bioenhancer which may be either an extract obtained from the plant Glycyrrhiza glabra, glycyrrhizin or glycyrrhizic acid, is required along with antibiotic to enhance its activity or even its withdrawal after treatment or prior to antibiotic treatment would benefit. […] Assay for Bio-Enhancement of Anti-Cancer Agents • a) MCF-7 (Breast cancer cell line is inoculated at a density of about 0.1×10^6 cells in MEM medium in the wells of 24 well plate. • b) The used up medium in these cultures is replaced with fresh medium after 18 hours in each well. • c) The test compound (s) is added at desired concentrations in different wells just after the medium replacement. • d) Observations are recorded on the cell count after 36 hours for which the following steps are required. • i. […] The number of viable cells is counted in 5 big squares and the reading is taken from 5 microscopic fields to determine the average. • viii. […]
# [4] = tested on: Mycobacterium smegmatis (ATCC 14468); experiment: Broth assay for bio-enhancement of antibiotics: viable cell count, Mycobacterium smegmatis; settings: Table 3
# Protocol: as §1
# In the next step of elucidation of the enhancer action the applicants experimented with the killing activities of different antibiotics against the bacteria singly and in combination with the test compound glycyrrhizin following the method described above. These experiments are to be considered with assay for bioenhancement of the compounds glycyrrhizin/glycyrrhizic acid and licorice, as described earlier. […] In all the experiments the glycyrrhizin concentration was kept at 1 μg/ml, unless it is specifically mentioned.
# [5] = tested on: Mycobacterium smegmatis; experiment: Disc diffusion assay against Mycobacterium smegmatis
# Protocol: as §2
# [6] = tested on: Escherichia coli (ATCC 10536); experiment: Broth assay for bio-enhancement of antibiotics: viable cell count, Escherichia coli
# [7] = tested on: Escherichia coli; experiment: Disc diffusion assay against Escherichia coli
# Protocol: as §2
compound,measurement,setting,value
CC1(C)[C@@H](O[C@H]2O[C@H](C(=O)O)[C@@H](O)[C@H](O)[C@H]2O[C@@H]2O[C@H](C(=O)O)[C@@H](O)[C@H](O)[C@H]2O)CC[C@]2(C)[C@H]3C(=O)C=C4[C@@H]5C[C@@](C)(C(=O)O)CC[C@]5(C)CC[C@@]4(C)[C@]3(C)CC[C@@H]12 [Glycyrrhizin],"Final titre of viable cells, without taxol, control (glycyrrhizin)",[1],0.12 × 10^−6 per ml
same,Enhancement of antibiotic potency after pretreatment of bacterial cells,"[2]; cells pretreated with glycyrrhizin for 4–8 hours, washed free, then treated with antibiotics",the same results were observed
same,Killing of bacteria grown in presence of the compound as such,"[2]; glycyrrhizin alone, no antibiotic",no significant killing
same,zone of inhibition at 1 µg/disc,[3],0 mm
CO[C@H]1/C=C/O[C@@]2(C)Oc3c(C)c(O)c4c(O)c(c(/C=N/N5CCN(C)CC5)c(O)c4c3C2=O)NC(=O)/C(C)=C\C=C\[C@H](C)[C@H](O)[C@@H](C)[C@@H](O)[C@@H](C)[C@H](OC(C)=O)[C@@H]1C [Rifampicin],Survival fraction of viable cells upon treatment with antibiotic alone (a),[4]; antibiotic 0.5 μg/ml,0.56 × 10^−4
same,Survival fraction of viable cells upon treatment with antibiotic- glycyrrhizin combination (b),[4]; antibiotic 0.5 μg/ml + glycyrrhizin 1 μg/ml,0.086 × 10^−4
same,*Folds enhancement in antibiotic activity (a/b),"[4]; antibiotic 0.5 μg/ml, glycyrrhizin 1 μg/ml",6.5 folds
same,zone of inhibition at 0.4 µg/disc,"[5]; Mycolicibacterium smegmatis, read-out: Net zone of inhibition",3 mm
same,Net zone of inhibition,[5]; rifampicin 0.4 μg/disc + glycyrrhizic acid 4 μg/disc,4 mm
same,Survival fraction of viable cells upon treatment with antibiotic alone (a),"[6]; Table 1, antibiotic 10 μg/ml",0.42
same,Survival fraction of viable cells upon treatment with antibiotic- glycyrrhizin combination (b),"[6]; Table 1, antibiotic 10 μg/ml + glycyrrhizin 1 μg/ml",0.11
same,*Folds enhancement in antibiotic activity (a/b),"[6]; Table 1, antibiotic 10 μg/ml, glycyrrhizin 1 μg/ml",3.8 folds
same,Survival fraction of viable cells upon treatment with antibiotic alone (a),"[6]; Table 1, antibiotic 20 μg/ml",0.28
same,Survival fraction of viable cells upon treatment with antibiotic- glycyrrhizin combination (b),"[6]; Table 1, antibiotic 20 μg/ml + glycyrrhizin 1 μg/ml",0.02
same,*Folds enhancement in antibiotic activity (a/b),"[6]; Table 1, antibiotic 20 μg/ml, glycyrrhizin 1 μg/ml",14.0 folds
same,Survival fraction of viable cells upon treatment with antibiotic glycyrrhizic acid combination (b),"[6]; Table 7, antibiotic 20 μg/ml + glycyrrhizic acid",0.281
same,Survival fraction of viable cells upon treatment with antibiotic glycyrrhizic acid combination (b),"[6]; Table 7, antibiotic 20 μg/ml + glycyrrhizic acid, listed as rifampicin",about 0.281
same,*Folds enhancement in antibiotic activity (a/b),"[6]; Table 7, antibiotic 20 μg/ml, glycyrrhizic acid",2.03 folds
same,Survival fraction of viable cells upon treatment with antibiotic alone (a),"[6]; Table 10, antibiotic 10 μg/ml",0.420
same,Survival fraction of viable cells upon treatment with antibiotic glycyrrhizic acid combination (b),"[6]; Table 10, antibiotic 10 μg/ml + licorice 25 μg/ml",0.135
same,*Folds enhancement in antibiotic activity (a/b),"[6]; Table 10, antibiotic 10 μg/ml, licorice 25 μg/ml",3.10 folds
same,zone of inhibition at 500 µg/disc,"[7]; Escherichia coli, read-out: Net zone of inhibition",2 mm
same,Net zone of inhibition,[7]; rifampicin 500 μg/disc + glycyrrhizic acid 4 μg/disc,3 mm
